Source: patent US9376418B2, “Substituted pyridine spleen tyrosine kinase (SYK) inhibitors” (Merck Sharp & Dohme Corp., priority 2012, dated 2016)

Target: T1, recombinant human GST-SYK (Homo sapiens, UniProt P43405)
T1 construct: purchased Carna Biosciences 08-176
Assay: Homogeneous Time-Resolved Fluorescence (HTRF) assay for the recombinant human Syk enzyme
Assay type: biochemical
Settings: HTRF assay, recombinant human GST-SYK; IC50 given as class symbols; read-out: rhSYK Activity
Method in brief: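 HTRF read-out: Europium-anti-phosphotyrosine antibody (2 nM) plus SA-APC (70 nM) in EDTA-containing buffer quenched the reaction, and signal was read after 30 minutes. Kinase step used […], 250 nM biotinylated peptide, 25 μM ATP, 5 mM Mg, 45′ at room temperature.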

IC50 [nM]	Compound
< 100	CC(=O)Nc1cc(Nc2nccc(C(F)(F)F)n2)cc(-c2ccc(NC(C)(C)C(=O)O)nc2)c1 [Example 7.1, N-{5-[3-(acetylamino)-5-{[4-(trifluoromethyl)pyrimidin-2-yl]amino}phenyl]pyridin-2-yl}-2-methylalanine]
< 100	CC(=O)Nc1cc(Nc2nccc(C(F)(F)F)n2)cc(-c2ccc(N3CC[C@H]3C(=O)O)nc2)c1 [Example 7.2, (2S)-1-{5-[3-(acetylamino)-5-{[4-(trifluoromethyl)pyrimidin-2-yl]amino}phenyl]pyridin-2-yl}azetidine-2-carboxylic acid]
< 100	CC(=O)Nc1cc(Nc2nccc(C(F)(F)F)n2)cc(-c2ccc(NC3CCNC3=O)nc2)c1 (stereo not drawn) [Example 7.3, N-(3-{6-[(2-oxopyrrolidin-3-yl)amino]pyridin-3-yl}-5-{[4-(trifluoromethyl)pyrimidin-2-yl]amino}phenyl)acetamide]
< 100	CC(=O)Nc1cc(Nc2nccc(C(F)(F)F)n2)cc(-c2ccc(N3CCNC(=O)CC3)nc2)c1 [Example 7.4, N-(3-[6-(5-oxo-1,4-diazepan-1-yl)pyridin-3-yl]-5-{[4-(trifluoromethyl)pyrimidin-2-yl]amino}phenyl)acetamide]
< 100	CC(=O)Nc1cc(Nc2nccc(C(F)(F)F)n2)cc(-c2ccc(N3CCNC(=O)C3)nc2)c1 [Example 7.5, N-(3-[6-(3-oxopiperazin-1-yl)pyridin-3-yl]-5-{[4-(trifluoromethyl)pyrimidin-2-yl]amino}phenyl)acetamide]
< 100	Cc1cc(Nc2nccc(C(F)(F)F)n2)cc(-c2ccc(N3CC[C@H]3C(=O)O)nc2)c1 [Example 7.6, (2S)-1-[5-(3-methyl-5-{[4-(trifluoromethyl)pyrimidin-2-yl]amino}phenyl)pyridin-2-yl]azetidine-2-carboxylic acid]
< 100	Cc1cc(Nc2nccc(C(F)(F)F)n2)cc(-c2ccc(NC(C)(C)C(=O)O)nc2)c1 [Example 7.7, 2-methyl-N-[5-(3-methyl-5-{[4-(trifluoromethyl)pyrimidin-2-yl]amino}phenyl)pyridin-2-yl]alanine]
100 to 1000	Cc1cc(Nc2nccc(C(F)(F)F)n2)cc(-c2ccc(N3CCCC4(CCCNC4=O)C3)nc2)c1 (stereo not drawn) [Example 7.9, 8-[5-(3-methyl-5-{[4-(trifluoromethyl)pyrimidin-2-yl]amino}phenyl)pyridin-2-yl]-2,8-diazaspiro[5.5]undecan-1-one]
100 to 1000	Cc1cc(Nc2nccc(C(F)(F)F)n2)cc(-c2ccc(N3CCC4(CCCCN4)CC3)nc2)c1 [Example 7.10, N-{3-[6-(1,9-diazaspiro[5.5]undec-9-yl)pyridin-3-yl]-5-methylphenyl}-4-(trifluoromethyl)pyrimidin-2-amine]
100 to 1000	Cc1cc(Nc2nccc(C(F)(F)F)n2)cc(-c2ccc(N3CCCC4(CCCO4)C3)nc2)c1 (stereo not drawn) [Example 7.11, N-{3-methyl-5-[6-(1-oxa-7-azaspiro[4.5]dec-7-yl)pyridin-3-yl]phenyl}-4-(trifluoromethyl)pyrimidin-2-amine]
100 to 1000	Cc1cc(Nc2nccc(C(F)(F)F)n2)cc(-c2ccc(N3CCCC4(C3)OCCO4)nc2)c1 [Example 7.12, N-{3-[6-(1,4-dioxa-7-azaspiro[4.5]dec-7-yl)pyridin-3-yl]-5-methylphenyl}-4-(trifluoromethyl)pyrimidin-2-amine]
100 to 1000	Cc1cc(Nc2nccc(C(F)(F)F)n2)cc(-c2ccc(N3CCCC4(CCNC4=O)C3)nc2)c1 (stereo not drawn) [Example 7.13]
100 to 1000	Cc1cc(Nc2nccc(C(F)(F)F)n2)cc(-c2ccc(N3CCCC4(CCOC4=O)C3)nc2)c1 (stereo not drawn) [Example 7.14, 7-[5-(3-methyl-5-{[4-(trifluoromethyl)pyrimidin-2-yl]amino}phenyl)pyridin-2-yl]-2-oxa-7-azaspiro[4.5]decan-1-one]
100 to 1000	Cc1cc(Nc2nccc(C(F)(F)F)n2)cc(-c2ccc(N3CCC4(CCN(C)C4=O)CC3)nc2)c1 [Example 7.15, 2-methyl-8-[5-(3-methyl-5-{[4-(trifluoromethyl)pyrimidin-2-yl]amino}phenyl)pyridin-2-yl]-2,8-diazaspiro[4.5]decan-1-one]

Same assay, conditions: recombinant GST-hSYK, 25 μM ATP, HTRF; read-out: IC50 (inhibition of human Syk activity)

IC50 [nM]	Compound
3.9	CC(=O)Nc1cc(Nc2nccc(C(F)(F)F)n2)cc(-c2ccc(NC(C)(C)C(=O)O)nc2)c1 [Example 7.1, N-{5-[3-(acetylamino)-5-{[4-(trifluoromethyl)pyrimidin-2-yl]amino}phenyl]pyridin-2-yl}-2-methylalanine]
